Experimental data taken from patent US20110183969A1, “ANTIFUNGAL COMBINATION THERAPY” (priority 2008, published 2011).
≈ marks a conversion by molar mass, not a printed value. Like-named read-outs stand apart in the source and are kept apart here.

Tests used:
Assay in all cases: MIC (YAG medium)
Type in all cases: cell-based
Aspergillus flavus = details: for MIC: Aspergillus flavus, read-out: MIC A. flavus (grade)
Experimental: (§1) Between 1 and 5 mgs of compound were accurately weighed out into a sterile Eppendorf tube. The compound was dissolved in DMSO to give a solution containing 5 mg/mL. Tubes were stored at −20° C. until required.
(§2) On the day of testing thawed solutions were vortex mixed to ensure homogeneity. 30 μL of solution was removed and added to 570 μL of sterile water in a separate sterile Eppendorf The thoroughly mixed solution was used to prepare a series of doubling dilutions in water, in a deep well plate. […] replicate plates were prepared using a Minitrak by aspirating 20 μL from each well into eleven clear polystyrene 96 well plates.
(§3) Spores of Aspergillus spp. (Aspergillus fumigatus [two strains], Aspergillus terreus [two strains], Aspergillus niger and Aspergillus flavus) were harvested from cultures grown on Sabarauds agar for 5 days, and resuspended in PBS/Tween 80 to approx 1×10^7 cfu/mL. Other filamentous fungi (Absidia corymbifera, Fusarium solani, Rhizomucor, Scedosporium spp., Trichophyton spp.), were grown on Sabarauds agar for 2-10 days and spores/hyphae resuspended in PBS/Tween to give approx 1×10^7 cfu/mL. Candida species (Candida albicans, Candida glabrata, Candida krusei, Candida parapsilosis and Candida tropicalis) were grown on Sabarauds agar, cells were harvested from the agar using a sterile loop and resuspended in PBS/Tween 80 to approx 1×10^6 cfu/mL. Each organism suspension was diluted in RPMI medium, containing 2% glucose and 0.135 M MOPS buffer (pH 7.0) to 0.5−2×10^4 cfu/mL for Aspergillus spp. and other filamentous fungi and 0.5-2×10^3 cfu/mL for yeast. 80 μL of an organism suspension was added to each well of the plate containing drug dilutions.
(§4) This produced MIC plates with a drug range 50-0.05 mg/L and organism inocula of 1-2×10^4 cfu/mL for Aspergillus spp. and other filamentous fungi and 1-2×10^3 cfu/mL for yeasts. All plates were incubated for 24-48 hrs at 35° C. Growth was assessed by monitoring the optical density at 485 nm for each well. The MIC of a compound is the lowest drug concentration that inhibits growth of an organism by >80% compared with a drug free control. MICs are recorded as mg/L. Other growth media can be used for susceptibility testing, and the activity of the described compounds can also be assessed in a medium comprising 1% glucose, 1% ammonium chloride and 0.5% yeast extract (YAG medium). To perform MIC tests in this medium, dilutions of compounds are prepared in microtitre plates as described above. Fungal strains to be tested are grown and harvested in an identical manner to that described above, each organism suspension is then diluted in YAG medium to 0.5-2×10^4 cfu/mL for Aspergillus spp. and other filamentous fungi and 0.5-2×10^3 cfu/mL for yeast. 80 μL of an organism suspension was added to each well of the plate containing drug dilutions. This produced MIC plates with a drug range 50-0.05 mg/L and organism inocula of 1-2×10^4 cfu/mL for Aspergillus spp. and other filamentous fungi and 1-2×10^3 cfu/mL for yeasts. All plates were incubated for 24 hrs at 35° C. Growth was assessed by monitoring the optical density at 485 nm for each well. The MIC of a compound is the lowest drug concentration that inhibits growth of an organism by >70% compared with a drug free control. MICs are recorded as mg/L. In cases where the MIC of an organism is […] mg/L the MIC is repeated using a concentration range of 0.5-0.0005 mg/L. MIC tests in YAG medium have more clear-cut endpoints and have slightly lower MICs than those performed in RPMI medium.
(§5) The following organisms were tested: Absidia corymbifera, Aspergillus flavus, Aspergillus fumigatus AF293 and AF210, Aspergillus niger, Aspergillus terreus AT4 and AT49, Candida albicans, Candida glabrata, Candida krusei, Candida parapsilosis, Candida tropicalis, Fusarium solani, Rhizomucor sp., Scedosporium apiospermum, Scedosporium prolificans, Trichophyton mentagrophytes, and Trichophyton rubrum.

[1] = test system: Aspergillus fumigatus AF210; details: for MIC: Aspergillus fumigatus
Experimental: as §1, §2, §3, §4, §5

[2] = test system: Aspergillus fumigatus AF293; details: for MIC: Aspergillus fumigatus
Experimental: as §1, §2, §3, §4, §5

Aspergillus niger = details: for MIC: Aspergillus niger, read-out: MIC A. niger (grade)
Experimental: as §1, §2, §3, §4, §5

Aspergillus terreus AT49 = details: for MIC: Aspergillus terreus
Experimental: as §1, §2, §3, §4, §5

Aspergillus terreus AT4 = details: for MIC: Aspergillus terreus
Experimental: as §1, §2, §3, §4, §5

[3] = YAG medium, MIC banded into grades
[4] = YAG medium, MIC banded into grades, AF210, read-out: MIC A. fumigatus 210 (grade)
[5] = YAG medium, MIC banded into grades, AF293, read-out: MIC A. fumigatus (grade)
[6] = YAG medium, MIC banded into grades, AT49, read-out: MIC A. terreus 49 (grade)
[7] = YAG medium, MIC banded into grades, AT4, read-out: MIC A. terreus (grade)

Compound | MIC (Aspergillus flavus; [3]) [µg/mL] | MIC [1, 4] [µg/mL] | MIC [2, 5] [µg/mL] | MIC (Aspergillus niger; [3]) [µg/mL] | MIC (Aspergillus terreus AT49; [6]) [µg/mL] | MIC (Aspergillus terreus AT4; [7]) [µg/mL] | further results
2-Oxo-2-(2-phenyl-indolizin-3-yl)-N-{4-[4-(2-pyridin-yl-ethyl)-perazin-1-yl]-phenyl}-acetamide [Example 36] |  |  |  |  |  |  | MIC A. flavus (grade) (Aspergillus flavus; [3]): 3 (A grade of 3 represents an MIC of less than 1 mg/L); MIC A. fumigatus 210 (grade) ([1]; YAG medium, MIC banded into grades, AF210): 3 (A grade of 3 represents an MIC of less than 1 mg/L); MIC A. fumigatus (grade) ([2]; YAG medium, MIC banded into grades, AF293): 3 (A grade of 3 represents an MIC of less than 1 mg/L); MIC A. niger (grade) (Aspergillus niger; [3]): 3 (A grade of 3 represents an MIC of less than 1 mg/L); MIC A. terreus 49 (grade) (Aspergillus terreus AT49; YAG medium, MIC banded into grades, AT49): 3 (A grade of 3 represents an MIC of less than 1 mg/L); MIC A. terreus (grade) (Aspergillus terreus AT4; YAG medium, MIC banded into grades, AT4): 3 (A grade of 3 represents an MIC of less than 1 mg/L)
O=C(Nc1ccc(N2CCS(=O)(=O)CC2)cc1)C(=O)c1c(-c2ccccc2)cc2ccccn12 [Example 1, N-[4-(1,1-Dioxo-1λ^6-thiomorpholin-4-yl)-phenyl]-2-oxo-2-(2-phenyl-indolizin-3-yl)-acetamide] | 1 to 10 (≈ 2.11 to 21.1 µM) | > 10 | > 10 | > 10 | > 10 | 1 to 10 (≈ 2.11 to 21.1 µM) | 
O=C(Nc1ccccc1F)C(=O)c1c(-c2ccccc2)cc2ccc3ccccc3n12 [Example 4, N-(2-fluoro-phenyl)-2-oxo-2-(2-phenyl-pyrrolo[1,2-a]quinolin-1-yl)-acetamide] | > 10 | > 10 | > 10 | > 10 | > 10 | > 10 | 
CS(=O)(=O)NC(=O)c1ccc(NC(=O)C(=O)c2c(-c3ccccc3)cc3ccccn23)cc1 [Example 5, N-(4-methanesulfonylaminocarbonyl-phenyl)-2-oxo-2-(2-phenyl-indolizin-3-yl)-acetamide] | > 10 | > 10 | > 10 | > 10 | > 10 | > 10 | 
COc1ccc(NC(=O)C(=O)c2c(C)c(-c3ccccc3)c3ccccn23)cc1 [Example 6, N-(4-methoxy-phenyl)-2-(2-methyl-1-phenyl-indolizin-3-yl)-2-oxo-acetamide] | > 10 | > 10 | > 10 | > 10 | > 10 | > 10 | 
Cc1c(-c2ccccc2)c2ccccn2c1C(=O)C(=O)Nc1ccc(N2CCOCC2)cc1 [Example 7, 2-(2-methyl-1-phenyl-indolizin-3-yl)-N-(4-morpholin-4-yl-phenyl)-2-oxo-acetamide] | > 10 | > 10 | > 10 | > 10 | > 10 | > 10 | 
CN1/C(=N/c2ccc(NC(=O)C(=O)c3c(-c4ccccc4)cc4ccccn34)cc2)OCC1(C)C [Example 8, 2-oxo-2-(2-phenyl-indolizin-3-yl)-N-{4-[3,4,4-trimethyl-oxazolidin-(2Z)-ylideneamino]-phenyl}-acetamide] | > 10 | > 10 | > 10 | > 10 | 1 to 10 (≈ 2.14 to 21.4 µM) | > 10 | 
O=C1Cc2cc(NC(=O)C(=O)c3c(-c4ccccc4)cc4ccccn34)ccc2N1 [Example 9, 2-Oxo-N-(2-oxo-2,3-dihydro-1H-indol-5-yl)-2-(2-phenyl-indolizin-3-yl)-acetamide] |  |  |  |  |  |  | MIC (Aspergillus flavus): > 10 µg/mL; MIC ([1]; AF210, read-out: MIC A. fumigatus 210 (grade)): > 10 µg/mL; MIC ([2]; AF293, read-out: MIC A. fumigatus (grade)): > 10 µg/mL; MIC (Aspergillus niger): > 10 µg/mL; MIC (Aspergillus terreus AT49; AT49, read-out: MIC A. terreus 49 (grade)): > 10 µg/mL; MIC (Aspergillus terreus AT4; AT4, read-out: MIC A. terreus (grade)): > 10 µg/mL
CCC(CC)N1CCN(c2ccc(NC(=O)C(=O)c3c(-c4ccccc4Cl)cc4ccccn34)cn2)CC1 [Example 10, 2-[2-(2-chloro-phenyl)-indolizin-3-yl]-N-{6-[4-(1-ethyl-propyl)-piperazin-1-yl]-pyridin-3-yl}-2-oxo-acetamide] | < 1 | < 1 | < 1 | < 1 | < 1 | < 1 | 
O=C(Nc1ccc(C(=O)OC2CCOCC2)c(O)c1)C(=O)c1c(-c2ccccc2)cc2ccccn12 [Example 11, 2-hydroxy-4-[2-oxo-2-(2-phenyl-indolizin-3-yl)-acetylamino]-benzoic acid tetrahydro-pyran-4-yl ester] | < 1 | < 1 | < 1 | < 1 | < 1 | < 1 | 
Cc1cc(NC(=O)C(=O)c2c(-c3ccccc3)cc3ccccn23)ccc1OCCCn1ccnc1C(C)C [Example 12, N-{4-[3-(2-Isopropyl-imidazol-1-yl)-propoxy]-3-methyl-phenyl}-2-oxo-2-(2-phenyl-indolizin-3-yl)-acetamide] | < 1 | 1 to 10 (≈ 1.92 to 19.2 µM) | 1 to 10 (≈ 1.92 to 19.2 µM) | > 10 | 1 to 10 (≈ 1.92 to 19.2 µM) | 1 to 10 (≈ 1.92 to 19.2 µM) | 
CC(C)c1nc(C(C)(C)c2cccc(NC(=O)C(=O)c3c(-c4ccccc4)cc4ccccn34)c2)cn1C [Example 14, N-{3-[1-(2-Isopropyl-1-methyl-1H-imidazol-4-yl)-1-methyl-ethyl]-phenyl}-2-oxo-2-(2-phenyl-indolizin-3-yl)-acetamide] | 1 to 10 (≈ 1.98 to 19.8 µM) | > 10 | > 10 | > 10 | 1 to 10 (≈ 1.98 to 19.8 µM) | 1 to 10 (≈ 1.98 to 19.8 µM) | 
CC(C)c1ncc(C(C)(C)c2cccc(NC(=O)C(=O)c3c(-c4ccccc4)cc4ccccn34)c2)n1C [Example 15, N-{3-[1-(2-Isopropyl-3-methyl-3H-imidazol-4-yl)-1-methyl-ethyl]-phenyl}-2-oxo-2-(2-phenyl-indolizin-3-yl)-acetamide] | > 10 | > 10 | > 10 | > 10 | > 10 | > 10 | 
CC(C)c1nc(C(C)(C)c2ccc(NC(=O)C(=O)c3c(-c4ccccc4)cc4ccccn34)cc2)cn1C [Example 16, N-{4-[1-(2-isopropyl-1-methyl-1H-imidazol-4-yl)-1-methyl-ethyl]-phenyl}-2-oxo-2-(2-phenyl-indolizin-3-yl)-acetamide] | < 1 | 1 to 10 (≈ 1.98 to 19.8 µM) | 1 to 10 (≈ 1.98 to 19.8 µM) | 1 to 10 (≈ 1.98 to 19.8 µM) | < 1 | < 1 | 
CC(C)c1ncc(C(C)(C)c2ccc(NC(=O)C(=O)c3c(-c4ccccc4)cc4ccccn34)cc2)n1C [Example 17, N-{4-[1-(2-Isopropyl-3-methyl-3H-imidazol-4-yl)-1-methyl-ethyl]-phenyl}-2-oxo-2-(2-phenyl-indolizin-3-yl)-acetamide] | > 10 | > 10 | > 10 | 1 to 10 (≈ 1.98 to 19.8 µM) | 1 to 10 (≈ 1.98 to 19.8 µM) | 1 to 10 (≈ 1.98 to 19.8 µM) | 
